Measured values published in article PMC10709440, “High-throughput ligand profile characterization in novel cell lines expressing seven heterologous insect olfactory receptors for the detection of volatile plant biomarkers” (Scientific Reports, 2023).
Where “and” joins values, the source holds several entries; their conditions need not be identical. Identical values can stand only once. Like-named read-outs stand apart in the source and are kept apart here.

Assays:
Drosophila OR10a = biological target: T1, Drosophila OR10a (Drosophila melanogaster, UniProt Q9VYZ1); test: Calcium ion fluorescence (GCaMP6) assay, OR10a stable HEK293 cell line; assay type: cell-based
T1 construct: expressed in transfected cells
T1 sequence (Q9VYZ1 1-406): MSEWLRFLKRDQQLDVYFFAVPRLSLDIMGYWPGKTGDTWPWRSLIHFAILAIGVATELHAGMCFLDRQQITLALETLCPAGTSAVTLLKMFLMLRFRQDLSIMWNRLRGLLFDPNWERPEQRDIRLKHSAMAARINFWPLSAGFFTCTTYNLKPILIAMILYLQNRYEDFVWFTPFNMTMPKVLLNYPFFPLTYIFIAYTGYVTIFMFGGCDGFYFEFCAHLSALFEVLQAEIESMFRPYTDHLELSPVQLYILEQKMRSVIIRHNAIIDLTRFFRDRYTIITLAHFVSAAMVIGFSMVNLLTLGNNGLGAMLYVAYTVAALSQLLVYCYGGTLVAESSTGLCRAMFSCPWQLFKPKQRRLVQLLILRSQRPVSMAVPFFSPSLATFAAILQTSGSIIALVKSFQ
T1 sequence (Q9VNB5 1-486 partner): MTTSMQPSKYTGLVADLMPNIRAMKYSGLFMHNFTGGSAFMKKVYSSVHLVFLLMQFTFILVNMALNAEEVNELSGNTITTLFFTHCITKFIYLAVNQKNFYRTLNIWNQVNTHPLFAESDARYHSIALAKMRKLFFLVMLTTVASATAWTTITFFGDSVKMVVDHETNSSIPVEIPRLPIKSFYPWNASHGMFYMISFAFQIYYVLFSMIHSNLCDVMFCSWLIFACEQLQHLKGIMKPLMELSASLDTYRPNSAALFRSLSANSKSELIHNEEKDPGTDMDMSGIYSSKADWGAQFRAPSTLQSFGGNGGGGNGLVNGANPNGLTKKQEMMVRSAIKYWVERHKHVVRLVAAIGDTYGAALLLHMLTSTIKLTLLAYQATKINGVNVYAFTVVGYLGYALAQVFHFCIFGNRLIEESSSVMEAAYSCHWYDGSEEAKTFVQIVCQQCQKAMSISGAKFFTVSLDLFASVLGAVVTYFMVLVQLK
Protocol: (§1) These VUAA1 normalized ∆F values were used to compare the different receptors and ligands.
(§2) The concentration-dependent effect of the reference ligands on their cognate cell lines was examined in more detail. Twelve different ligand concentrations were measured on each cell line in an overall 0.01 μM to 100 μM concentration range with 5 repetitions with three technical replicates each time.
(§3) Twelve thousand to 18,000 cells were plated into each well of a black wall, transparent bottom 384-well microplate (Greiner) 48 h or 72 h before the measurements and were simultaneously treated with 1 μg/mL doxycycline. […] The plate has 24 columns, thus we could record responses in up to eight different cell lines in each plate. On the day of the experiment, the growth medium was replaced with 20 µL assay buffer/well (140 mM NaCl, 5 mM KCl, 2 mM CaCl2, 1 mM MgCl2, 5 mM HEPES-Na, 20 mM glucose, pH 7.3, 340 mOsm). […] Baseline fluorescence (F0) was recorded for 5 s, after which 7 µL VOC buffer (140 mM NaCl, 5 mM KCl, 2 mM CaCl2, 1 mM MgCl2, 5 mM HEPES-Na, 31 mM glucose, 0.1% DMSO, pH 7.3, 340 mOsm) was injected into each well in one row and the fluorescence response was recorded for an additional 30 s, at a rate of one read/sec. VOC solutions (VOC buffer with 4× concentration of the final measured VOC concentration, 9 µL/well was injected) were measured on the same wells in a second round with the same protocol. Each individual concentration of a specific VOC sample was recorded in three wells for the same cell line on the same microplate. The raw data were exported in xls file format, F0 and FMAX values, and the fluorescence intensity changes (∆F) were calculated in Excel (Microsoft) (Supplementary file Data summary.xlsx) using the following equation: ΔF=FMAX-F0/F0 (see also Fig. 1C). On each plate, we recorded the response of each cell line to 50 µM VUAA1. The average of these ∆F values of each cell line were used to calculate the VUAA1-normalized values for the rest of the plate, by dividing VOC response ∆F values by the average VUAA1 response ∆F value of the corresponding OR cell line. Each VOC-OR combination was measured three times as technical replicates. […] The average of these replicates were used as one ∆F and VUAA1-normalized ∆F in the following analysis.
(§4) In the next rows we tested the reference VOCs (or other VOCs known to activate the corresponding cell lines), in order to test if all cell lines are responsive. The remaining rows were used to test VOCs with unknown effect.
(§5) The recorded FMAX, F0, ∆F, VUAA1-normalized ∆F values, as well as the OR name, the name of the tested sample, and the final concentration for each well were copied into supplementary file Data summary.xlsx, that was used to summarize all the plates recorded. Here, the averages of the measurements were calculated for each receptor-VOC-concentration combination.

Drosophila OR98a = biological target: T2, Drosophila OR98a (Drosophila melanogaster, UniProt Q9VAZ3); test: Calcium ion fluorescence (GCaMP6) assay, OR98a stable HEK293 cell line; assay type: cell-based; conditions: for OR98a Average response (VUAA1-normalized): 50 μM VUAA1 = 1; for Average response: OR98a cell line, average of biological replicates, fraction of VUAA1 response
T2 construct: expressed in transfected cells
T2 sequence (Q9VAZ3 1-397): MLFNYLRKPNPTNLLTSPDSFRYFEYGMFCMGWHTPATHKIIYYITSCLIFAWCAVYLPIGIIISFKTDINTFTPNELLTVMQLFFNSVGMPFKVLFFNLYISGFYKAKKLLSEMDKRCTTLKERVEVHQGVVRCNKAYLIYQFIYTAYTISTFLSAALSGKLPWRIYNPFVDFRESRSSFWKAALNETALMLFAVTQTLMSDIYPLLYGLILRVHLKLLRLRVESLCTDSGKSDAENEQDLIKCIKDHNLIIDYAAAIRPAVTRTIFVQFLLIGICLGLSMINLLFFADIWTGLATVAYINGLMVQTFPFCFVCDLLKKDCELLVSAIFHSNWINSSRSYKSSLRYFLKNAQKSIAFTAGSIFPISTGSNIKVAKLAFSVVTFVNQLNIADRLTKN
T2 sequence (Q9VNB5 1-486 partner): T1 sequence (Q9VNB5 1-486 partner)
Protocol: as §1, §2, §3, §4, §5

[1] = HEK293, 1 μM VOC, 50 μM VUAA1 = 1, responses not exceeding 0.05 considered 0, read-out: OR10a Average response (VUAA1-normalized)
[2] = HEK293, 10 μM VOC, 50 μM VUAA1 = 1, responses not exceeding 0.05 considered 0, read-out: OR10a Average response (VUAA1-normalized)
[3] = HEK293, 100 μM VOC, 50 μM VUAA1 = 1, responses not exceeding 0.05 considered 0, read-out: OR10a Average response (VUAA1-normalized)
[4] = HEK293, read-out: OR10a response (VUAA1-normalized response), VOC concentration 1 μM
[5] = HEK293, read-out: OR10a response (VUAA1-normalized response), VOC concentration 10 μM
[6] = HEK293, read-out: OR10a response (VUAA1-normalized response), VOC concentration 100 μM
[7] = ligand concentration 1 (unit not given), threshold 0.05, below shown as 0
[8] = ligand concentration 10 (unit not given), threshold 0.05, below shown as 0
[9] = ligand concentration 100 (unit not given), threshold 0.05, below shown as 0
[10] = HEK293, read-out: Average response
[11] = HEK293, read-out: OR98a response (VUAA1-normalized response)
[12] = 100 µM, OR10a clone G5, single plate 2019.12.05

Row | Compound | activation at 1 µM (Drosophila OR10a; [1]) | activation at 10 µM (Drosophila OR10a; [2]) | activation at 100 µM (Drosophila OR10a; [3]) | activation at 1 µM (Drosophila OR10a; [4]) | activation at 10 µM (Drosophila OR10a; [5]) | activation at 100 µM (Drosophila OR10a; [6]) | DF norm AVERAGE OR10a (Drosophila OR10a; [7]) | DF norm AVERAGE OR10a (Drosophila OR10a; [8]) | DF norm AVERAGE OR10a (Drosophila OR10a; [9]) | activation at 1 µM (Drosophila OR98a; [10]) | activation at 10 µM (Drosophila OR98a; [10]) | activation at 100 µM (Drosophila OR98a; [10]) | activation at 1 µM (Drosophila OR98a; [11]) | activation at 10 µM (Drosophila OR98a; [11]) | activation at 100 µM (Drosophila OR98a; [11]) | DF norm AVERAGE OR98a (Drosophila OR98a; [7]) | DF norm AVERAGE OR98a (Drosophila OR98a; [8]) | DF norm AVERAGE OR98a (Drosophila OR98a; [9]) | further results
1 | CCCCCC(=O)OCC [ethyl hexanoate] | 6% | 3% | 8.51% | 6% | 0% | 8.51% | 0.06289 | 0 | 0.08508 | 5% | 12% | 3.29% | 0% | 12% | 0% | 0 | 0.1164 | 0 | –
2 | CCCCCCCCC(CO)CCCCCC (centres unmarked) [2-hexyl-1-decanol] | 15% | 11% | 19% | 15% | 11% | 19% | – | – | – | 0% | 14% | 2% | 0% | 14% | 0% | – | – | – | DF norm AVERAGE OR10a (Drosophila OR10a): 0.1461 and 0.1055 and 0.1938; DF norm AVERAGE OR98a (Drosophila OR98a; concentration 1, normalized fluorescence change, values below 0.05 threshold given as 0): 0; DF norm AVERAGE OR98a (Drosophila OR98a; concentration 10, normalized fluorescence change, values below 0.05 threshold given as 0): 0.1367; DF norm AVERAGE OR98a (Drosophila OR98a; concentration 100, normalized fluorescence change, values below 0.05 threshold given as 0): 0
3 | CC(=O)OCC(C)C [isobutyl acetate] | – | – | – | 6.57% | 0% | 18% | 0.06574 | 0 | 0.1821 | 1.85% | 0% | 6.56% | 0% | 0% | 6.56% | 0 | 0 | 0.0656 | activation at 1 µM (Drosophila OR10a; HEK293, read-out: OR10a Average response (VUAA1-normalized), 1 μM VOC, 50 μM VUAA1 = 1, responses not exceeding 0.05 considered 0): 7%; activation at 10 µM (Drosophila OR10a; HEK293, read-out: OR10a Average response (VUAA1-normalized), 10 μM VOC, 50 μM VUAA1 = 1, responses not exceeding 0.05 considered 0): 5%; activation at 100 µM (Drosophila OR10a; HEK293, read-out: OR10a Average response (VUAA1-normalized), 100 μM VOC, 50 μM VUAA1 = 1, responses not exceeding 0.05 considered 0): 18%
4 | CCCCCCCCCC=O [decanal] | 0% | 0% | 0% | 0% | 0% | 0% | 0 | 0 | 0 | 3% | 0% | 0% | 0% | 0% | 0% | 0 | 0 | 0 | –
5 | CC(C)=CCC/C(C)=C/CC/C(C)=C/CO [e,e-farnesol] | – | – | – | – | – | – | 0 | 0.06329 | 0 | – | – | – | – | – | – | 0 | 0.07127 | 0.09839 | OR10a Average response (VUAA1-normalized) (Drosophila OR10a; 1 μM VOC, 50 μM VUAA1 = 1, responses not exceeding 0.05 considered 0): 0.034; OR10a Average response (VUAA1-normalized) (Drosophila OR10a; 10 μM VOC, 50 μM VUAA1 = 1, responses not exceeding 0.05 considered 0): 0.0633; OR10a Average response (VUAA1-normalized) (Drosophila OR10a; 100 μM VOC, 50 μM VUAA1 = 1, responses not exceeding 0.05 considered 0): 0.0174; OR10a response (VUAA1-normalized response) (Drosophila OR10a; VOC concentration 1 μM): 0.00; OR10a response (VUAA1-normalized response) (Drosophila OR10a; VOC concentration 10 μM): 0.0633; OR10a response (VUAA1-normalized response) (Drosophila OR10a; VOC concentration 100 μM): 0.00; OR98a Average response (VUAA1-normalized) (Drosophila OR98a; 1 μM VOC): 0.02; OR98a Average response (VUAA1-normalized) (Drosophila OR98a; 10 μM VOC): 0.07; OR98a Average response (VUAA1-normalized) (Drosophila OR98a; 100 μM VOC): 0.10; OR98a response (VUAA1-normalized response) (Drosophila OR98a; VOC concentration 1 μM): 0.00; OR98a response (VUAA1-normalized response) (Drosophila OR98a; VOC concentration 10 μM): 0.07; OR98a response (VUAA1-normalized response) (Drosophila OR98a; VOC concentration 100 μM): 0.10; Average response (Drosophila OR98a; cc. 1 µM): 0.017; Average response (Drosophila OR98a; cc. 10 µM): 0.07; Average response (Drosophila OR98a; cc. 100 µM): 0.10
6 | CCCCOC(=O)CC [butyl propanoate] | 0% | 0% | 3.44% | 0% | 0% | 0% | 0 | 0 | 0 | – | – | – | – | – | – | – | – | – | DF norm, all technical replicates (Drosophila OR10a; [12]): 0; DF norm, outlier technical replicates removed (Drosophila OR10a; [12]): 0; DF, outlier technical replicates removed (Drosophila OR10a; [12]): 0; DF, all technical replicates (Drosophila OR10a; 100 µM, OR10a clone G5, single plate 2019.12.05, xc+0.1%DMSO): 0
